# Test results published in patent US20030229451A1, “Methods and systems for analyzing complex biological systems” (priority 2001, published 2003).
# Experiments:
# [1] = system: Saccharomyces cerevisiae wild type strain BY4743; test: AF1 combined gene expression and metabolite mapping to reactions and pathways (KEGG); type: cell-based
# Description: The pathway score indicates how meaningful the mapping is, or how likely it is to be correctly indicative of the pathway involved in the perturbation under examination. The method provides a pathway score based on perturbation levels of genes and/or compounds and the information content of each gene and/or compound in the pathway, i.e., a pathway score indicates the extent to which other pathways are mapped to a gene/compound. For example, imagine that two genes are perturbed in a particular experiment. One gene maps to only one pathway, giving a high degree of probability that the perturbed pathway is the one identified in the mapping. The second gene maps to three pathways. In the later example, there is only one-third the probability that the pathway identified in the mapping is the one perturbed. The present invention provides a method for calculating the pathway scores, so that more weight is given to a score of a gene or compound that maps to only one pathway than to a score of a gene or compound that maps to multiple pathways. […] Where n=the total number of genes in the pathway; ipath—count=the number of pathways containing a gene; and j=the number of genes in the pathway that are perturbed. Another factor to be considered when weighting a pathway score is the degree of perturbation. Degree of perturbation can be calculated, for example, based on a number of standard deviations from a norm, and included in an equation such as the one shown above, so that not only the number of pathways is taken into account, but also accounts for the amount of gene transcript or compound present as compared to a control. The data were then combined to determine the number of reactions showing an enzyme and at least one compound perturbed, and to determine the number of pathways having at least one enzyme and one perturbed compound perturbed. The results of the analysis are represented in Tables 16 and 17, and were difficult to interpret, illustrating that the ability to draw conclusions from compound mapping to pathways is limited when absent additional data.
# [2] = system: Saccharomyces cerevisiae wild type strain BY4743; test: AF1 gene expression analysis of yeast cells treated with antifungal drugs; type: cell-based; details: for # Transcripts perturbed: 2x MIC, two hours; for # Pathways Affected by at Least One Gene: p < 0.05
# Description: Saccharomyces cerevisiae wild type strain BY4743 was purchased from American Type Culture Center (ATCC, Manassas, Va.). The yeast strain was grown in YPD or SD media. H. […] The cultures started from fresh single colonies were grown in 1.0 ml YPD overnight at 30° C. […] The OD600 was adjusted to 1.0 with YPD media, then 2.0 ml of each was inoculated into three 250 ml flasks, each containing 50 ml of SD media. […] The cells were kept growing for another two hours, then collected by centrifugation at 4000 rpm for 5 minutes at 4° C. Pellets were washed once with ice-cold water, then were lyophilized overnight at 4° C. […] Tubes were vortexed for 30 seconds, then incubated for 10 minutes at room temperature (RT). […] Tubes were incubated for 10 minutes at RT. Samples were centrifuged for 20 minutes as before. Pellets were washed with 400 μl 70% ethanol and centrifuged for 10 minutes as before. The pellet was then dissolved in 100 μl nuclease-free water. RNA quality was determined using the Bioanalyzer 2100 and the RNA 6000 assay (Agilent Technologies, Palo Alto, Calif.) according to manufacturer's instructions. RNA concentrations were determined spectrophotometrically by measuring the absorption at, 260 nm in an Ultrospec 2000 (Pharmacia Biotech, Piscataway, N.J.). […] Labeled cRNAs were evaluated using the RNA 6000 assay on the Agilent Bioanalyzer 2100. Labeled cRNA concentrations were determined spectrophotometrically by measuring the absorption at 260 nm in an Ultrospec 2000 (Pharmacia Biotech, Piscataway, N.J.). […] Each pair of samples to be hybridized were independently labeled and hybridized utilizing a fluor reversal for a total of two hybridizations per sample pair. The microarrays were scanned simultaneously in the Cy3 and Cy5 channels with Agilent's 48-slide, Dual Laser DNA Microarray Scanner (Agilent Technologies, Palo Alto, Calif.) at 10 μm resolution using default settings. Image Analysis Software (Version A.4.0.45, Agilent Technologies, Palo Alto, Calif.) was used for image analysis. Each feature was determined from an array's associated pattern file and a detection algorithm. Intensity values for each feature were determined after subtracting background derived from an average of negative control features. Features with unusual pixel intensity statistics (e.g., high non-uniformity, saturation in either channel, and the like) were excluded from downstream analyses. Data was loaded into the Rosetta RESOLVER database (Rosetta Inpharmatics Inc., Kirkland, Wash.) for storage and analysis. Data was evaluated after combining results from fluor reversal replicate hybridizations. The annotation of yeast ORFs was obtained from Proteome BIOKNOWLEDGE Library (Incyte Genomics, Palo Alto, Calif.). In AF1, two different technologies were utilized: gene expression analysis (for examination of mRNA expression) and metabolite analysis. […] As noted previously, existing metabolic databases may be helpful in practicing the methods and systems of the present invention, but many databases include limitations that make their use in data analysis and pathway mapping less than straightforward. […] This caveat to KEGG makes it difficult to pinpoint the correct pathway when attempting to link a gene to a specific pathway.
Structure (SMILES),# Reactions Having an Enzyme and at Least One Compound Perturbed [1],Number Of Pathways Having at Least One Enzyme and One Compound Perturbed (# Reactions) [1],# Transcripts perturbed ([2]; P < 0.05),# Transcripts perturbed ([2]; P < 0.1),# Pathways Affected by at Least One Gene [2]
C[C@@H]1[C@H](O)[C@@H](C)/C=C/C=C/C=C/C=C/C=C/C=C/C=C/[C@H](O[C@@H]2O[C@H](C)[C@@H](O)[C@H](N)[C@@H]2O)C[C@@H]2O[C@](O)(C[C@@H](O)C[C@@H](O)[C@H](O)CC[C@@H](O)C[C@@H](O)CC(=O)O[C@H]1C)C[C@H](O)[C@H]2C(=O)O [Amphoteracin B],54,37,4363,4652,97
OC(Cn1cncn1)(Cn1cncn1)c1ccc(F)cc1F [Fluconazole],2,15,1411,1719,79
CC[C@@H]([C@H](C)O)n1ncn(-c2ccc(N3CCN(c4ccc(OC[C@@H]5CO[C@@](Cn6cncn6)(c6ccc(F)cc6F)C5)cc4)CC3)cc2)c1=O [Posaconazole],0,3,690,925,69
